# Reference: patent publication US20020022746A1, “Method for the crystallization of iopamidol” (priority 1998, published 2002)
# Test: Solubility of Iopamidol plotted against reflux time (FIG. 1)
# Format: physicochemical
# Method: With reference to FIG. 1, there is a graph showing the solubility of Iopamidol plotted against reflux time when a ratio of Iopamidol:water:ethanol 4:1:8 (w/v/v) is used in accordance with the method of the present invention. As shown in this graph, the reflux for 4 hours or greater allows the crystallized Iopamidol to have a solubility of 80% or greater. […] Because Iopamidol monohydrates or pentahydrates are of about 50% solubility, the method of the present invention can convert Iopamidol monohydrates or pentahydrates into Iopamidol anhydrides.
# FIG. 1 is a graph showing the solubility change of the Iopamidol with reflux time.
"solubility (crystallized Iopamidol, Iopamidol:water:ethanol 4:1:8 (w/v/v), reflux for 4 hours or greater)",solubility (hydrated crystalline forms),Compound
≥ 80%,–,C[C@H](O)C(=O)Nc1c(I)c(C(=O)NC(CO)CO)c(I)c(C(=O)NC(CO)CO)c1I [Iopamidol]
–,about 50%,"C[C@H](O)C(=O)Nc1c(I)c(C(=O)NC(CO)CO)c(I)c(C(=O)NC(CO)CO)c1I [Iopamidol monohydrates, Iopamidol]"
